Source: patent US12662479B2 (Foghorn Therapeutics Inc., priority 2020, dated 2026)
Counter-ions that a name gives are not always drawn.

Experiments:
HiBit-BRM fusion protein = molecular target: T1, HiBit-BRM fusion protein (Homo sapiens, UniProt P51531); assay: HiBiT-BRM cell-based degradation assay (Nano-Glo HiBiT Lytic Detection, 24 h); conditions: HeLa cells expressing HiBiT-BRM; for DC50: read-out: BRM HiBit Degradation IC50; for BRM HiBit Degradation Maximum measured: top dose 30 μM
T1 construct: expressed in transfected cells
T1 sequence (P51531 whole entry, the tested form may be a part): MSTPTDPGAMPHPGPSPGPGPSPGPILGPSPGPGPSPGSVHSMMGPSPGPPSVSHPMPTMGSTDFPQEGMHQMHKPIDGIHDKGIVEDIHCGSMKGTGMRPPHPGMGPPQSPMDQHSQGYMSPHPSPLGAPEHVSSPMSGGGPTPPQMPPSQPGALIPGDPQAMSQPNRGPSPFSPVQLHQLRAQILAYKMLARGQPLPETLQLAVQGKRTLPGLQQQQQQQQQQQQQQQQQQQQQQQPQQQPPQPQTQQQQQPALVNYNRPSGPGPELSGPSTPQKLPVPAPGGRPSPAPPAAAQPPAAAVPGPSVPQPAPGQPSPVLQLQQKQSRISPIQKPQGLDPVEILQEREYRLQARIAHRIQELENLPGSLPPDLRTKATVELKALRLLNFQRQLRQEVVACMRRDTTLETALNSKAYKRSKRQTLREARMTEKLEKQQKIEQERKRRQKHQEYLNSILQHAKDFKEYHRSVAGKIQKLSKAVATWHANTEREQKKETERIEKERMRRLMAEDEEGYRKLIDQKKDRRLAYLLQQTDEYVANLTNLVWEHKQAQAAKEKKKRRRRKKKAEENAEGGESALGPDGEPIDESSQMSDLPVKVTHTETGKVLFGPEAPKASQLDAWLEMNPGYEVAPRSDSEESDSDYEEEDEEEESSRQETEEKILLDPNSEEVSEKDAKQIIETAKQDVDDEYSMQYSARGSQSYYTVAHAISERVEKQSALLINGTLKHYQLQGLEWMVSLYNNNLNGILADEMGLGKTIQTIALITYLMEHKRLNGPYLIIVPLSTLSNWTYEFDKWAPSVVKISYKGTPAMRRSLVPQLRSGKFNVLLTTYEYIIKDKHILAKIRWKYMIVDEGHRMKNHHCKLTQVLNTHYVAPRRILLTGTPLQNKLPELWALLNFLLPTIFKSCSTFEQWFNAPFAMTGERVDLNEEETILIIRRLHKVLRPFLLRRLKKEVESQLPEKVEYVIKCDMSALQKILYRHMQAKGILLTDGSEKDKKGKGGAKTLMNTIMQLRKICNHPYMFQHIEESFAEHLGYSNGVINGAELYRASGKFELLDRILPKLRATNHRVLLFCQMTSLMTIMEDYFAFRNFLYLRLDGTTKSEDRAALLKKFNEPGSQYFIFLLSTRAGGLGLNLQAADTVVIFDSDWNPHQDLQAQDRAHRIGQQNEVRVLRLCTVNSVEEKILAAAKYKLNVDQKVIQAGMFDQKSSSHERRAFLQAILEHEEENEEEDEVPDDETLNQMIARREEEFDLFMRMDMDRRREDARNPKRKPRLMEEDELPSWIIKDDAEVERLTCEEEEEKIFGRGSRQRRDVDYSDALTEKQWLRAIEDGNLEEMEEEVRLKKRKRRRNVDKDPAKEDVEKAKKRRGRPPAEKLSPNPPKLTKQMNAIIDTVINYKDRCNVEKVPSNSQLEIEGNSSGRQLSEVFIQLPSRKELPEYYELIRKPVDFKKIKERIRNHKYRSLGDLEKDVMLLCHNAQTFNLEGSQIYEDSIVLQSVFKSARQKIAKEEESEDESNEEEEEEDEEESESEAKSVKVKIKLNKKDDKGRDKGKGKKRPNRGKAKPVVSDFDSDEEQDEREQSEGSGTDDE
In short: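 HeLa cells stably expressing HiBiT-BRM were treated for 24 h with compounds (10-point 3-fold dilutions, 30 μM final top dose, in duplicate). HiBiT was detected by lytic LgBiT complementation luminescence. % degradation was normalized to DMSO (high control) and 2 μM of a reference BRM/BRG1 degrader (low control).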

[1] = molecular target: T2, HiBit-BRG1 fusion protein (Homo sapiens, UniProt P51532); assay: HiBiT-BRG1 cell-based degradation assay (Nano-Glo HiBiT Lytic Detection, 24 h); conditions: HeLa cells expressing HiBit-BRG1 and LgBit; for DC50: read-out: BRG1 HiBit Degradation IC50; for Dmax: HeLa, top dose 30 μM, read-out: BRG1 HiBit Degradation Maximum measured
T2 construct: expressed in transfected cells
T2 sequence (P51532 whole entry, the tested form may be a part): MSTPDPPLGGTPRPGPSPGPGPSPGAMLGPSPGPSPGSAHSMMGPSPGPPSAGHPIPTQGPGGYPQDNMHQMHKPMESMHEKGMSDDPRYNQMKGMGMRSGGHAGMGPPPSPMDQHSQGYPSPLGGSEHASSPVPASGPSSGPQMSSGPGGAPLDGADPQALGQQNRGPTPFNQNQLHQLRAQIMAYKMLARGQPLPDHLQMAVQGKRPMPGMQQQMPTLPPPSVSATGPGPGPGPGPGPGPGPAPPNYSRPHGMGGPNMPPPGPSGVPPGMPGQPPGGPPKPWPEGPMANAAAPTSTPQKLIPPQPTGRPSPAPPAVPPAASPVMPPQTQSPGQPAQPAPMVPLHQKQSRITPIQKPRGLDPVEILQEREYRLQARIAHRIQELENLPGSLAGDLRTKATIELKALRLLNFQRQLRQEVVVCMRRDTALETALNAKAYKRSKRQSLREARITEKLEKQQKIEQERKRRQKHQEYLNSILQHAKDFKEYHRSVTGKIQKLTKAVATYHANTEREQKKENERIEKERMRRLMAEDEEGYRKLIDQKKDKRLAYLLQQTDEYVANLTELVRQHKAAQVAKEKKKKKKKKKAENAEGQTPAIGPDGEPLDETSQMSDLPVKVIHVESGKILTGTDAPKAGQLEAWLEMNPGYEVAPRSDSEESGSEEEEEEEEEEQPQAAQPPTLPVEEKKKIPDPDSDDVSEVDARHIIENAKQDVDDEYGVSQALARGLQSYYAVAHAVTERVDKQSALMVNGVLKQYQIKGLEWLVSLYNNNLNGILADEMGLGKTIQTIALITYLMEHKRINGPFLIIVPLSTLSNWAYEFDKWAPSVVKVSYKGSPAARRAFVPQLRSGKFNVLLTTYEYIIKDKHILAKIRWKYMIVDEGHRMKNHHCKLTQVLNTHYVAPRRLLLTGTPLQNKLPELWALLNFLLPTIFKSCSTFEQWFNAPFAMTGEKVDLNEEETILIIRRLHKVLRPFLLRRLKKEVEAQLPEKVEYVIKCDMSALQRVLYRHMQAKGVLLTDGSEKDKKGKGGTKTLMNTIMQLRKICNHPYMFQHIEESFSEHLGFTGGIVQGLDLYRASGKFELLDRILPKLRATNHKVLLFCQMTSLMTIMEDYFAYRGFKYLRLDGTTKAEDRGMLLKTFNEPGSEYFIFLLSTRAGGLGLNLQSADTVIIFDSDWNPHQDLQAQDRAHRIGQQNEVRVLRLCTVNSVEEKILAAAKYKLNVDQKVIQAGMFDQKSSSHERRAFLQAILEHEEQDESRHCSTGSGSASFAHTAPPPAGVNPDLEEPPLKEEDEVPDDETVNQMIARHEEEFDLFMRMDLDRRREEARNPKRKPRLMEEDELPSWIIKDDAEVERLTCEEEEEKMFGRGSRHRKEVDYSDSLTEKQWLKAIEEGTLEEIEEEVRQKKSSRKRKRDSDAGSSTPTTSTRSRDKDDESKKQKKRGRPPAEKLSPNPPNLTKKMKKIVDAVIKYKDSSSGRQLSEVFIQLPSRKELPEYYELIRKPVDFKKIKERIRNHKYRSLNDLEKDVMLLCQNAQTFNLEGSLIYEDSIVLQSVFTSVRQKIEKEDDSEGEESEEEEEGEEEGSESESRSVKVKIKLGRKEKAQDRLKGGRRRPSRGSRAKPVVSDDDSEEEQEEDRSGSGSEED
In short: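 Stable HeLa line expressing HiBiT-BRG1 and LgBiT, seeded at 5000 cells/well; luminescence read after lytic Nano-Glo HiBiT reagent and 10 min shaking at RT. % degradation normalised between DMSO (high control) and 2 μM reference BRM/BRG1 degrader (low control).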

Row | SMILES | DC50 (HiBit-BRM fusion protein) [nM] | BRM HiBit Degradation Maximum measured (HiBit-BRM fusion protein) | DC50 [1] [nM] | Dmax [1] [%]
1 | Cc1ncsc1-c1ccc(CNC(=O)[C@@H]2C[C@@H](O)CN2C(=O)[C@@H](NC(=O)CCCCCCC(=O)NCc2ccc(COC[C@H](NC(=O)c3ccn(S(C)(=O)=O)c3)C(=O)Nc3nc(-c4ccccc4)cs3)cc2)C(C)(C)C)cc1 [Compound 210, N-[(2S)-1-[(2S,4R)-4-hydroxy-2-([[4-(4-methyl-1,3-thiazol-5-yl)phenyl]methyl]carbamoyl)pyrrolidin-1-yl]-3,3-dimethyl-1-oxobutan-2-yl]-N′-[(4-[[(2S)-2-[(1-methanesulfonylpyrrol-3-yl)formamido]-2-[(4-phenyl-1,3-thiazol-2-yl)carbamoyl]ethoxy]methyl]phenyl)methyl]octanediamide] | > 10000 | C (‘C’ = Maximum degradation <50%) | > 10000 | < 50
2 | Cc1ncsc1-c1ccc(CNC(=O)[C@@H]2C[C@@H](O)CN2C(=O)[C@@H](NC(=O)CCCCCCCCCCCCC(=O)NCc2ccc(COC[C@H](NC(=O)c3ccn(S(C)(=O)=O)c3)C(=O)Nc3nc(-c4ccccc4)cs3)cc2)C(C)(C)C)cc1 [Compound 211, N-[(2S)-1-[(2S,4R)-4-hydroxy-2-([[4-(4-methyl-1,3-thiazol-5-yl)phenyl]methyl]carbamoyl)pyrrolidin-1-yl]-3,3-dimethyl-1-oxobutan-2-yl]-N′-[(4-[[(2S)-2-[(1-methanesulfonylpyrrol-3-yl)formamido]-2-[(4-phenyl-1,3-thiazol-2-yl)carbamoyl]ethoxy]methyl]phenyl)methyl]tetradecanediamide] | > 10000 | C (‘C’ = Maximum degradation <50%) | > 10000 | < 50
3 | CS(=O)(=O)n1ccc(C(=O)N[C@@H](COCc2ccc(CNC(=O)CCCCOc3cccc4c3C(=O)N(C3CCC(=O)NC3=O)C4=O)cc2)C(=O)Nc2nc(-c3ccccc3)cs2)c1 (stereo partly drawn) [Compound 212, 5-[[2-(2,6-dioxopiperidin-3-yl)-1,3-dioxoisoindol-4-yl]oxy]-N-[(4-[[(2S)-2-[(1-methanesulfonylpyrrol-3-yl)formamido]-2-[(4-phenyl-1,3-thiazol-2-yl)carbamoyl]ethoxy]methyl]phenyl)methyl]pentanamide] | > 10000 | C (‘C’ = Maximum degradation <50%) | > 10000 | < 50
4 | CS(=O)(=O)n1ccc(C(=O)N[C@@H](COCc2ccc(CNC(=O)CCCCCCCOc3cccc4c3C(=O)N(C3CCC(=O)NC3=O)C4=O)cc2)C(=O)Nc2nc(-c3ccccc3)cs2)c1 (stereo partly drawn) [Compound 213, 8-[[2-(2,6-dioxopiperidin-3-yl)-1,3-dioxoisoindol-4-yl]oxy]-N-[(4-[[(2S)-2-[(1-methanesulfonylpyrrol-3-yl)formamido]-2-[(4-phenyl-1,3-thiazol-2-yl)carbamoyl]ethoxy]methyl]phenyl)methyl]octanamide] | 100 to 1000 | B (‘B’ = Maximum degradation ≥50% and ≤75%) | 100 to 1000 | 50 to 75
5 | CS(=O)(=O)n1ccc(C(=O)N[C@@H](COCc2ccc(CNC(=O)CCCCCCCCCCNc3cccc4c3C(=O)N(C3CCC(=O)NC3=O)C4=O)cc2)C(=O)Nc2nc(-c3ccccc3)cs2)c1 (stereo partly drawn) [Compound 214, 11-[[2-(2,6-dioxopiperidin-3-yl)-1,3-dioxoisoindol-4-yl]amino]-N-[(4-[[(2S)-2-[(1-methanesulfonylpyrrol-3-yl)formamido]-2-[(4-phenyl-1,3-thiazol-2-yl)carbamoyl]ethoxy]methyl]phenyl)methyl]undecanamide] | 100 to 1000 | B (‘B’ = Maximum degradation ≥50% and ≤75%) | 100 to 1000 | –
6 | CS(=O)(=O)n1ccc(C(=O)N[C@@H](COCc2ccc(CNC(=O)CCN3CCN(c4ccc5c(c4)C(=O)N(C4CCC(=O)NC4=O)C5=O)CC3)cc2)C(=O)Nc2nc(-c3ccccc3)cs2)c1 (stereo partly drawn) [Compound 215, (2S)-3-([4-[(3-[4-[2-(2,6-dioxopiperidin-3-yl)-1,3-dioxoisoindol-5-yl]piperazin-1-yl]propanamido)methyl]phenyl]methoxy)-2-[(1-methanesulfonylpyrrol-3-yl)formamido]-N-(4-phenyl-1,3-thiazol-2-yl)propanamide; formic acid] | 100 to 1000 | B (‘B’ = Maximum degradation ≥50% and ≤75%) | 100 to 1000 | > 75
7 | CS(=O)(=O)n1ccc(C(=O)N[C@@H](COCc2ccc(CNC(=O)C3CCN(CCOc4ccc5c(c4)C(=O)N(C4CCC(=O)NC4=O)C5=O)CC3)cc2)C(=O)Nc2nc(-c3ccccc3)cs2)c1 (stereo partly drawn) [Compound 216, 1-(2-[[2-(2,6-dioxopiperidin-3-yl)-1,3-dioxoisoindol-5-yl]oxy]ethyl)-N-[(4-[[(2S)-2-[(1-methanesulfonylpyrrol-3-yl)formamido]-2-[(4-phenyl-1,3-thiazol-2-yl)carbamoyl]ethoxy]methyl]phenyl)methyl]piperidine-4-carboxamide; formic acid] | 100 to 1000 | A (‘A’ = Maximum degradation >75%) | 100 to 1000 | > 75
8 | CS(=O)(=O)n1ccc(C(=O)N[C@@H](COCc2ccc(CNC(=O)CCOCCOCCOc3ccc4c(c3)C(=O)N(C3CCC(=O)NC3=O)C4=O)cc2)C(=O)Nc2nc(-c3ccccc3)cs2)c1 (stereo partly drawn) [Compound 217, 3-[2-(2-[[2-(2,6-dioxopiperidin-3-yl)-1,3-dioxoisoindol-5-yl]oxy]ethoxy)ethoxy]-N-[(4-[[(2S)-2-[(1-methanesulfonylpyrrol-3-yl)formamido]-2-[(4-phenyl-1,3-thiazol-2-yl)carbamoyl]ethoxy]methyl]phenyl)methyl]propanamide] | 100 to 1000 | B (‘B’ = Maximum degradation ≥50% and ≤75%) | 100 to 1000 | 50 to 75
9 | Cc1ncsc1-c1ccc(CNC(=O)[C@@H]2C[C@@H](O)CN2C(=O)[C@@H](NC(=O)CCCCCCCNC(=O)CCCOCC[C@H](NC(=O)c2ccn(S(C)(=O)=O)c2)C(=O)Nc2nc(-c3ccccc3)cs2)C(C)(C)C)cc1 [Compound 218, (2S,4R)-4-hydroxy-1-[(2S)-2-(8-[4-[(3S)-3-[(1-methanesulfonylpyrrol-3-yl)formamido]-3-[(4-phenyl-1,3-thiazol-2-yl)carbamoyl]propoxy]butanamido]octanamido)-3,3-dimethylbutanoyl]-N-[[4-(4-methyl-1,3-thiazol-5-yl)phenyl]methyl]pyrrolidine-2-carboxamide] | > 10000 | C (‘C’ = Maximum degradation <50%) | > 10000 | < 50
10 | CS(=O)(=O)n1ccc(C(=O)N[C@@H](CCOCCCC(=O)N2CCN(CCOc3ccc4c(c3)C(=O)N(C3CCC(=O)NC3=O)C4=O)CC2)C(=O)Nc2nc(-c3ccccc3)cs2)c1 (stereo partly drawn) [Compound 219, (2S)-4-[4-[4-(2-[[2-(2,6-dioxopiperidin-3-yl)-1,3-dioxoisoindol-5-yl]oxy]ethyl)piperazin-1-yl]-4-oxobutoxy]-2-[(1-methanesulfonylpyrrol-3-yl)formamido]-N-(4-phenyl-1,3-thiazol-2-yl)butanamide] | > 10000 | C (‘C’ = Maximum degradation <50%) | > 10000 | < 50
11 | CS(=O)(=O)n1ccc(C(=O)N[C@@H](CCOCCCC(=O)N2CCC(CN3CCN(c4ccc5c(c4)C(=O)N(C4CCC(=O)NC4=O)C5=O)CC3)CC2)C(=O)Nc2nc(-c3ccccc3)cs2)c1 (stereo partly drawn) [Compound 220, N-((2S)-4-(4-(4-((4-(2-(2,6-dioxopiperidin-3-yl)-1,3-dioxoisoindolin-5-yl)piperazin-1-yl)methyl)piperidin-1-yl)-4-oxobutoxy)-1-oxo-1-((4-phenylthiazol-2-yl)amino)butan-2-yl)-1-(methylsulfonyl)-1H-pyrrole-3-carboxamide formate] | > 10000 | C (‘C’ = Maximum degradation <50%) | > 10000 | < 50
12 | CS(=O)(=O)n1ccc(C(=O)N[C@@H](CCOCCCC(=O)N2CC(CN3CCN(c4ccc5c(c4)C(=O)N(C4CCC(=O)NC4=O)C5=O)CC3)C2)C(=O)Nc2nc(-c3ccccc3)cs2)c1 (stereo partly drawn) [Compound 221, (2S)-4-[4-[3-([4-[2-(2,6-dioxopiperidin-3-yl)-1,3-dioxoisoindol-5-yl]piperazin-1-yl]methyl)azetidin-1-yl]-4-oxobutoxy]-2-[(1-methanesulfonylpyrrol-3-yl)formamido]-N-(4-phenyl-1,3-thiazol-2-yl)butanamide] | > 10000 | C (‘C’ = Maximum degradation <50%) | > 10000 | < 50
13 | CS(=O)(=O)n1ccc(C(=O)N[C@@H](CCOCCCC(=O)N2CC3(CCN(CCCNc4ccc5c(c4)C(=O)N(C4CCC(=O)NC4=O)C5=O)CC3)C2)C(=O)Nc2nc(-c3ccccc3)cs2)c1 (stereo partly drawn) [Compound 222, (2S)-4-[4-[7-(3-[[2-(2,6-dioxopiperidin-3-yl)-1,3-dioxoisoindol-5-yl]amino]propyl)-2,7-diazaspiro[3.5]nonan-2-yl]-4-oxobutoxy]-2-[(1-methanesulfonylpyrrol-3-yl)formamido]-N-(4-phenyl-1,3-thiazol-2-yl)butanamide; formic acid] | > 10000 | C (‘C’ = Maximum degradation <50%) | > 10000 | < 50
